Literature values as cited in US20170037184A1, “VITAMIN E-BASED NANOCARRIERS FOR DRUG DELIVERY AND METHODS OF MAKING AND USING THE SAME” (THE CORPORATION OF MERCER UNIVERSITY, priority 2014, published 2017).

Conditions: ethylenediamine group of DET conjugated to polyasparagine

NCCNCCN [DET, diethylenetriamine]
pKa1: 9.5
pKa2: 6.0
